In US7553506B2, “Herbal compositions for prevention and treatment of rheumatic and inflammatory diseases and method of preparing the same” (Shenzhen Qianrenren Sci. & Tech. Development Co., priority 2004, dated 2009):

Assays:
[1] = test system: Outpatients with active rheumatoid arthritis; assay: Clinical study of Anti-Rheumatoid Arthritis Liquor (ARL) versus active control (MTX combination); type: in vivo, human; details: for number of patients with 50% improvement (R50) / number of patients with 75% improvement (R75) / number of patients with 100% improvement (R100) / % of patients with 50% improvement (R50) / % of patients with 75% improvement (R75) / % of patients with 100% improvement (R100): 20 patients per group
Experimental: Outpatients with active rheumatoid arthritis, according to the classification criteria of the American Arthritis College, without other significant medical conditions were recruited. 40 patients were recruited, 7 male and 33 female. Their ages were ranged from 28-67 years old with average of 46.8 years old. The disease duration of the patients ranged from 0.4 to 13 years.
[…] Observe group, 20 patients, was treated with ARL (30 ml/d). It was taken before sleep or equally divided to be taken in the morning and evening.
The outcome measurements for the both groups were divided to signs and symptoms, including: rest pain assessment, duration of morning stiffness, number of tender joint and the index of tenderness, number of swelling joints and the swelling index, grip strength, joint function, erythrocyte sedimentation rate, C reaction protein, and rheumatoid factor. The individual parameter improvement was calculated through the following formula:
The total improvement was used to compare the efficacy between the two groups. In order to accurately reflect the drug efficacy, 50% improvement, 75% improvement, and 100% improvement (R50, R75 and R100) were used as statistical endpoint for efficacy.

[2] = test system: Outpatients with active rheumatoid arthritis; assay: Clinical study of Anti-Rheumatoid Arthritis Capsule (ARC) versus active control (MTX combination); details: for % of patients with 50% improvement (R50) / number of patients with 50% improvement (R50) / number of patients with 75% improvement (R75) / number of patients with 100% improvement (R100) / % of patients with 75% improvement (R75): 18 patients per group
Experimental: Anti-Rheumatoid Arthritis Capsule (ARC) is a capsule made of the powder form of the herbal composition of the present invention in accordance with the components and method shown in Example 1. To assess the basic efficacy and side effect of ARC, an open, randomized and active controlled clinical trial was carried out.
Outpatients with active rheumatoid arthritis, according to the classification criteria of the American Arthritis College, without other significant medical conditions were recruited. […] Safety and compliance were monitored every 2 weeks with complete outcome evaluation at 4, 8, and 12 weeks.
Thirty-six (36) typical active RA patients were selected and randomly divided into two groups. Observe group, 18 patients, was treated with ARC (4 capsules t.i.d., each capsule is about 0.3 g).
The improvement was denoted as either R50, R75 or R100 reflecting either an improvement to the 50%, 75%, or 100% level in the parameters based on the improvements of signs and symptoms including rest pain assessment, duration of morning stiffness, number of tender joint and the index of tenderness, number of swelling joints and the swelling index, grip strength, joint function, erythrocyte sedimentation rate, C reaction protein, and rheumatoid factor.

rheumatoid arthritis = details: general statement on RA therapy; cited from earlier work
[3] = 26 weeks, listed as combination of oral MTX and NSAID
[4] = 52 weeks, listed as combination of oral MTX and NSAID
[5] = 12 weeks, listed as active control

In the case of CN(Cc1cnc2nc(N)nc(N)c2n1)c1ccc(C(=O)N[C@@H](CCC(=O)O)C(=O)O)cc1 [MTX, Methotrexate], the “time required to reach R50” value [1] is reported as 8-12 weeks, the “time required to reach R75” value [1] is reported as 20-32 weeks and the “time required to reach R100” value [1] is reported as 52 weeks. For the same compound, the “number of patients with 50% improvement (R50)” value ([1]; 4 weeks) was 0, the “number of patients with 75% improvement (R75)” value ([1]; 4 weeks) was 0 and the “number of patients with 100% improvement (R100)” value ([1]; 4 weeks) was 0. For the same compound, the “number of patients with 50% improvement (R50)” value ([1]; 8 weeks) was 0, the “number of patients with 75% improvement (R75)” value ([1]; 8 weeks) was 0 and the “number of patients with 100% improvement (R100)” value ([1]; 8 weeks) was 0. For the same compound, the “% of patients with 50% improvement (R50)” value ([1]; 12 weeks) was “(45) %”, the “number of patients with 50% improvement (R50)” value ([1]; 12 weeks) was 9 and the “number of patients with 75% improvement (R75)” value ([1]; 12 weeks) was 0. The “number of patients with 100% improvement (R100)” value ([1]; 12 weeks) was 0, the “% of patients with 50% improvement (R50)” value ([1]; 12 weeks, listed as combination of oral MTX and NSAID) was 45% and the “% of patients with 50% improvement (R50)” value ([1]; 26 weeks) was “(40) %”. For the same compound, the “% of patients with 75% improvement (R75)” value ([1]; 26 weeks) was “(50) %”, the “number of patients with 50% improvement (R50)” value ([1]; 26 weeks) was 8 and the “number of patients with 75% improvement (R75)” value ([1]; 26 weeks) was 10. For the same compound, the “number of patients with 100% improvement (R100)” value ([1]; 26 weeks) was 0, the “% of patients with 50% improvement (R50)” value [1, 3] was 40% and the “% of patients with 75% improvement (R75)” value [1, 3] was 50%. The “% of patients with 75% improvement (R75)” value ([1]; 52 weeks) was “(75) %”, the “% of patients with 100% improvement (R100)” value ([1]; 52 weeks) was “(25) %” and the “number of patients with 50% improvement (R50)” value ([1]; 52 weeks) was 0. The “number of patients with 75% improvement (R75)” value ([1]; 52 weeks) was 15, the “number of patients with 100% improvement (R100)” value ([1]; 52 weeks) was 5 and the “% of patients with 75% improvement (R75)” value [1, 4] was 75%. The “% of patients with 100% improvement (R100)” value [1, 4] was 25%, the “Time Required for Improvement, R50” value ([1]; Table 5, value ± spread) was 15.2 ± 5.43 week and the “Time Required for Improvement, R75” value ([1]; Table 5, value ± spread) was 27.7 ± 10.5 week. For the same compound, the “Time Required for Improvement, R100” value ([1]; Table 5, value ± spread) was 47.2 ± 10.7 week, the “% of patients with 50% improvement (R50)” value ([2]; 4 weeks) was “(11.1) %” and the “number of patients with 50% improvement (R50)” value ([2]; 4 weeks) was 2. The “number of patients with 75% improvement (R75)” value ([2]; 4 weeks) was 0, the “number of patients with 100% improvement (R100)” value ([2]; 4 weeks) was 0 and the “% of patients with 50% improvement (R50)” value ([2]; 4 weeks, listed as active control) was 11.1%. The “% of patients with 50% improvement (R50)” value ([2]; 8 weeks) was “(11.1) %”, the “number of patients with 50% improvement (R50)” value ([2]; 8 weeks) was 2 and the “number of patients with 75% improvement (R75)” value ([2]; 8 weeks) was 0. For the same compound, the “number of patients with 100% improvement (R100)” value ([2]; 8 weeks) was 0, the “% of patients with 50% improvement (R50)” value ([2]; 8 weeks, listed as active control) was 11.1% and the “patients who complained about stomachalgia” value ([2]; 12 weeks observation, 18 patients) was 3 patients. The “% of patients with 50% improvement (R50)” value ([2]; 12 weeks) was “(55.5) %”, the “% of patients with 75% improvement (R75)” value ([2]; 12 weeks) was “(11.1) %” and the “number of patients with 50% improvement (R50)” value ([2]; 12 weeks) was 10. For the same compound, the “number of patients with 75% improvement (R75)” value ([2]; 12 weeks) was 2, the “% of patients with 50% improvement (R50)” value [2, 5] was 55.5% and the “% of patients with 75% improvement (R75)” value [2, 5] was 11.1%. For the same compound, the “time usually required to show some clinical effect” value (rheumatoid arthritis) was 12-24 weeks.
